Laboratory results: patent US7629310B2, “RhoB as a suppressor of cancer cell growth, cell transformation, and metastasis” (University of South Florida, priority 2000, dated 2009)

Legend:
Format in all cases: cell-based
RhoB promoter [1] = experiment: RhoB promoter transcriptional activity in H-Ras/3T3 cells; details: treated 12 hours (FIG. 6B)
Description: The cell lysates were processed as in FIGS. 5A-5D. […] The cell lysates were processed as in FIGS. 5A-5D. […] The cell lysates were processed as in FIGS. 5A-5D. Gene Constructs and RhoB Promoter Transcriptional Activity Assay. Constitutively active H-Ras61L, K-RasV12, N-RasV12, and dominant negative […]-Ras were kind gifts from Dr. Channing Der (University of North Carolina) (Khosravi-Far, R. et al., Mol Cell Biol, 1995, 15:6443-53; Quilliam, L. A. et al., Mol Cell Biol, 1994, 14:1113-21). Wild-type RhoA and RhoB were subcloned into hemaglutinin (HA)-tagged pcDNA3 (INVITROGEN). The orientation and the sequences of these genes were confirmed by DNA sequencing facilities at the H. Lee Moffitt Cancer Center, Tampa, Fla. RhoB promoter construct pGEI was kindly provided by Dr Y. Monden (Banyu Tsukuba Research, Japan) (Nakamura et al., 1996). pCMV-β-galactosidase vector was purchased from INVITROGEN. The plasmid containing CA-, DN-PI3K, Mek and Akt were kindly provided by Dr. Julie Y. Djeu (H. Lee Moffitt Cancer and Research Institute, Tampa, Fla.) (Jiang, K. et al., Blood, 2003, 101:236-44). β-galactosidase activity and luciferase assay kits were purchased from PROMEGA Corporation, Madison, Wis. […] The RhoB promoter transcriptional activity was determined by dividing the luciferase/β-Gal values from oncogene-transfected cells by those from pcDNA3-transfected cells. […]

RhoB promoter [2] = experiment: RhoB promoter transcriptional activity (luciferase reporter) in NIH3T3 cells
Description: Gene Constructs and RhoB Promoter Transcriptional Activity Assay. Constitutively active H-Ras61L, K-RasV12, N-RasV12, and dominant negative […]-Ras were kind gifts from Dr. Channing Der (University of North Carolina) (Khosravi-Far, R. et al., Mol Cell Biol, 1995, 15:6443-53; Quilliam, L. A. et al., Mol Cell Biol, 1994, 14:1113-21). Wild-type RhoA and RhoB were subcloned into hemaglutinin (HA)-tagged pcDNA3 (INVITROGEN). The orientation and the sequences of these genes were confirmed by DNA sequencing facilities at the H. Lee Moffitt Cancer Center, Tampa, Fla. RhoB promoter construct pGEI was kindly provided by Dr Y. Monden (Banyu Tsukuba Research, Japan) (Nakamura et al., 1996). pCMV-β-galactosidase vector was purchased from INVITROGEN. The plasmid containing CA-, DN-PI3K, Mek and Akt were kindly provided by Dr. Julie Y. Djeu (H. Lee Moffitt Cancer and Research Institute, Tampa, Fla.) (Jiang, K. et al., Blood, 2003, 101:236-44). β-galactosidase activity and luciferase assay kits were purchased from PROMEGA Corporation, Madison, Wis. The serum response element (SRE) reporter was provided by Dr. Richard Jove, H. Lee Moffitt Cancer and Research Institute, Tampa, Fla. (Turkson, J. et al., Mol Cell Biol, 1999, 19:7519-28). […] Richard Jove, Oncology program, H. Lee Moffitt Cancer and Research Institute, Tampa, Fla. (Turkson, J. et al., Mol Cell Biol, 1999, 19:7519-28). […] (Luetteke, N. C. et al., Genes Dev, 1994, 8:399-413). DNA transfection was performed with the standard lipofectamine protocol (INVITROGEN). […] After transfection the cells were grown for another 36-48 h. Cells were then washed twice with PBS and lyzed in Promega Passive Lysis Buffer. Aliquots of the lysates were then used to measure the luciferase and β-galactosidase activities. The luciferase values were first divided by β-galactosidase values. The RhoB promoter transcriptional activity was determined by dividing the luciferase/β-Gal values from oncogene-transfected cells by those from pcDNA3-transfected cells. […] All the samples were performed in triplicate and the averages of 3 independent experiments were reported here.

H-Ras/3T3 cells = experiment: Invasion through […]-coated transfilters, H-Ras/3T3 cells; details: H-Ras/3T3 cells (FIG. 9A)
Method: HRas/3T3 cells (FIG. 9A) and PANC-1 cells (FIG. 9B) were transiently transfected with pcDNA3 vector control, H-Ras61L, CA-Akt, or WT-Akt in the presence or absence of RhoA, RhoB, or pcDNA3 for 36 hours. The cells were then split and analyzed for their invading capabilities through […]-coated transfilters as described in the Materials and Methods section. PANC-1 and PC3 cells (FIG. 9C) were transiently transfected with pcDNA3, with H-Ras61L in the presence or absence of RhoA, or RhoB for 36 hours. The cells were then serum-starved for another 36 hours; the conditioned medium was collected and 20 μg protein were analyzed for MMP-2 expression by Western Blotting.
Whether RhoB can also antagonize cell invasion was evaluated. To this end, H-Ras/3T3 and PANC-1 cells were similarly transfected as above with various oncogenes along with RhoA or RhoB, then seeded onto […]-coated poly-hydrocarbonate filters mounted in the middle of a Boyden transwell apparatus as described under Methods. […] Furthermore, transfection with CA-Akt or WT-Akt enhanced invasion; and RhoB, not RhoA, inhibited this enhancement of invasion (FIGS. 9A and 9B).

Compound	induction of RhoB promoter activity (RhoB promoter [1])	induction of RhoB promoter activity (RhoB promoter [2]; NIH3T3, 5-FU 2.0 μM 12 hours (FIG. 6A)) [fold]	induction of RhoB promoter activity (RhoB promoter [2]; NIH3T3, 5-FU 2 μM for 12 hours, absence of oncogenes (FIG. 2A))	induction of RhoB promoter activity (RhoB promoter [2]; NIH3T3, 5-FU 2 μM for 12 hours, in the presence of H-Ras, N-Ras, and K-Ras (FIG. 2A))	invasion through MATRIGEL (H-Ras/3T3 cells)
O=c1[nH]cc(F)c(=O)[nH]1 [5-FU, 5-fluorouracil]	little effect	2	more than 4 fold	only one fold or less than one fold	
RhoA: closely related family member sharing 86% sequence identity with RhoB; wild-type, in HA-tagged pcDNA3, transfected as control					invaded
